Active and inactive are the calls of the source. Peptide text beside a SMILES is read from it.
Columns and labels:
[1] = target: GABA-B receptor (Homo sapiens, UniProt O75899+Q9UBS5); experiment: Activation of human GABAB1/GABAB2 expressed in HEK293 cells co-transfected with rat CaV2.2 channel assessed as reduction in CaV2.2-mediated peak-current amplitude in response to the depolarizing pulse by whole cell patch clamp assay; type: cell-based, HEK293T
[2] = tested on: Rattus norvegicus; experiment: Analgesic activity in Sprague-Dawley rat model of PNL injury-induced neuropathic pain assessed as pain threshold elevation percentage at 15 nmol/kg, IM administered as single dose measured after 2 to 2.5 hrs post dose; type: functional; details: time 2-2.5 hrs
[3] = target: Neuronal acetylcholine receptor; alpha2/beta2 (Rattus norvegicus) (UniProt P12389+P12390); experiment: Inhibition of rat alpha2beta2 nAChR expressed in Xenopus laevis oocytes assessed as inhibition of Ach-induced response at 10 uM at -80 mV holding potential preincubated for 5 mins followed by Ach stimulation by two electrode voltage-clamp assay relative to control; type: cell-based; details: Oocyte
[4] = target: Nicotinic acetylcholine receptor alpha9/alpha10 (Rattus norvegicus, UniProt P43144+Q9JLB5); experiment: Inhibition of rat alpha9alpha10 nAChR expressed in Xenopus laevis oocytes assessed as inhibition of Ach-induced response at -80 mV holding potential preincubated for 5 mins followed by Ach stimulation by two electrode voltage-clamp assay; type: cell-based, Oocyte
[5] = target: Neuronal acetylcholine receptor; alpha3/beta2 (Rattus norvegicus) (UniProt P04757+P12390); experiment: Inhibition of rat alpha3beta2 nAChR expressed in Xenopus laevis oocytes assessed as inhibition of Ach-induced response at 10 uM at -80 mV holding potential preincubated for 5 mins followed by Ach stimulation by two electrode voltage-clamp assay relative to control; type: cell-based; details: Oocyte
[6] = target: T1, GABA-B receptor (Homo sapiens) (UniProt Q9UBS5+O75899); experiment: Activation of human GABAB1/GABAB2 expressed in HEK293 cells co-transfected with rat CaV2.2 channel assessed as reduction in CaV2.2-mediated peak-current amplitude in response to depolarizing pulse at 1 nM by whole cell patch clamp assay relative to control; type: cell-based; details: HEK293T
[7] = Selectivity index, ratio of IC50 for inhibition of rat alpha9alpha10 nAChR expressed in Xenopus laevis oocytes to IC50 for activation of human GABAB1/GABAB2 expressed in HEK293 cells co-transfected with rat CaV2.2 channel assessed as reduction in CaV2.2-mediated peak Ba2+ current amplitude; type: cell-based
[8] = tested on: Rattus norvegicus; experiment: Analgesic activity in Sprague-Dawley rat model of PNL injury-induced neuropathic pain assessed as pain threshold elevation percentage at 0.3 nmol/kg, IM administered as single dose measured after 2 to 2.5 hrs post dose; type: functional; details: time 2-2.5 hrs
[9] = target: Neuronal acetylcholine receptor; alpha4/beta2 (Rattus norvegicus) (UniProt P09483+P12390); experiment: Inhibition of rat alpha4beta2 nAChR expressed in Xenopus laevis oocytes assessed as inhibition of Ach-induced response at 10 uM at -80 mV holding potential preincubated for 5 mins followed by Ach stimulation by two electrode voltage-clamp assay relative to control; type: cell-based; details: Oocyte
[10] = tested on: Rattus norvegicus; experiment: Analgesic activity in Sprague-Dawley rat model of chronic constriction injury-induced neuropathic pain assessed as increase in pain threshold elevation percentage at 0.3 to 15 nmol/kg, IM administered as single dose measured after 2 to 2.5 hrs post dose; type: functional, organism-based; details: dose 0.3-15 nmol/kg, time 2-2.5 hrs
[11] = tested on: Neuron; experiment: Inhibition of TTX-sensitive sodium channel in Sprague-Dawley rat DRG neuron at 10 uM at -10 mV holding potential by whole cell patch clamp technique; type: tissue-based
[12] = target: T1, GABA-B receptor (Homo sapiens); experiment: Activation of human GABAB1/GABAB2 expressed in HEK293 cells co-transfected with rat CaV2.2 channel assessed as reduction in CaV2.2-mediated Ba2+ peak-current amplitude in response to depolarizing pulse in presence of 1 uM GABAB receptor antagonist CGP55845 by whole cell patch clamp assay; type: cell-based; details: HEK293T, time 6.0 hrs
[13] = Selectivity index, ratio of IC50 for inhibition of human alpha9alpha10 nAChR expressed in Xenopus laevis oocytes to IC50 for activation of human GABAB1/GABAB2 expressed in HEK293 cells co-transfected with rat CaV2.2 channel assessed as reduction in CaV2.2-mediated peak-current amplitude; type: cell-based
[14] = tested on: Rattus norvegicus; experiment: Analgesic activity in Sprague-Dawley rat model of PNL injury-induced neuropathic pain assessed as pain threshold elevation percentage at 1.5 nmol/kg, IM administered as single dose measured after 2 to 2.5 hrs post dose; type: functional; details: time 2-2.5 hrs
[15] = species: Rattus norvegicus; experiment: Inhibition of TTX-resistant sodium channel in Sprague-Dawley rat DRG neuron at 10 uM at 10 mV holding potential by whole cell patch clamp technique
[16] = target: Neuronal acetylcholine receptor; alpha2/beta4 (Rattus norvegicus) (UniProt P12389+P12392); experiment: Inhibition of rat alpha2beta4 nAChR expressed in Xenopus laevis oocytes assessed as inhibition of Ach-induced response at 10 uM at -80 mV holding potential preincubated for 5 mins followed by Ach stimulation by two electrode voltage-clamp assay relative to control; type: cell-based; details: Oocyte
[17] = target: Neuronal acetylcholine receptor subunit alpha-7 (Rattus norvegicus) (UniProt Q05941); experiment: Inhibition of rat alpha7 nAChR expressed in Xenopus laevis oocytes assessed as inhibition of Ach-induced response at 10 uM at -80 mV holding potential preincubated for 5 mins followed by Ach stimulation by two electrode voltage-clamp assay relative to control; type: cell-based; details: Oocyte
[18] = target: Neuronal acetylcholine receptor; alpha3/beta4 (Rattus norvegicus) (UniProt P04757+P12392); experiment: Inhibition of rat alpha3beta4 nAChR expressed in Xenopus laevis oocytes assessed as inhibition of Ach-induced response at 10 uM at -80 mV holding potential preincubated for 5 mins followed by Ach stimulation by two electrode voltage-clamp assay relative to control; type: cell-based; details: Oocyte
[19] = target: Neuronal acetylcholine receptor; alpha9/alpha10 (Homo sapiens, UniProt Q9GZZ6+Q9UGM1); experiment: Inhibition of human alpha9alpha10 nAChR expressed in Xenopus laevis oocytes assessed as inhibition of Ach-induced response at -80 mV holding potential preincubated for 5 mins followed by Ach stimulation by two electrode voltage-clamp assay; type: cell-based, Oocyte
[20] = tested on: Rattus norvegicus; experiment: Analgesic activity in Sprague-Dawley rat model of PNL injury-induced neuropathic pain assessed as pain threshold elevation percentage at 0.3 to 15 nmol/kg, IM administered as single dose measured after 2 to 2.5 hrs post dose; type: functional, organism-based; details: dose 0.3-15 nmol/kg, time 2-2.5 hrs

GABA-B receptor, sequence (Q9UBS5 whole entry): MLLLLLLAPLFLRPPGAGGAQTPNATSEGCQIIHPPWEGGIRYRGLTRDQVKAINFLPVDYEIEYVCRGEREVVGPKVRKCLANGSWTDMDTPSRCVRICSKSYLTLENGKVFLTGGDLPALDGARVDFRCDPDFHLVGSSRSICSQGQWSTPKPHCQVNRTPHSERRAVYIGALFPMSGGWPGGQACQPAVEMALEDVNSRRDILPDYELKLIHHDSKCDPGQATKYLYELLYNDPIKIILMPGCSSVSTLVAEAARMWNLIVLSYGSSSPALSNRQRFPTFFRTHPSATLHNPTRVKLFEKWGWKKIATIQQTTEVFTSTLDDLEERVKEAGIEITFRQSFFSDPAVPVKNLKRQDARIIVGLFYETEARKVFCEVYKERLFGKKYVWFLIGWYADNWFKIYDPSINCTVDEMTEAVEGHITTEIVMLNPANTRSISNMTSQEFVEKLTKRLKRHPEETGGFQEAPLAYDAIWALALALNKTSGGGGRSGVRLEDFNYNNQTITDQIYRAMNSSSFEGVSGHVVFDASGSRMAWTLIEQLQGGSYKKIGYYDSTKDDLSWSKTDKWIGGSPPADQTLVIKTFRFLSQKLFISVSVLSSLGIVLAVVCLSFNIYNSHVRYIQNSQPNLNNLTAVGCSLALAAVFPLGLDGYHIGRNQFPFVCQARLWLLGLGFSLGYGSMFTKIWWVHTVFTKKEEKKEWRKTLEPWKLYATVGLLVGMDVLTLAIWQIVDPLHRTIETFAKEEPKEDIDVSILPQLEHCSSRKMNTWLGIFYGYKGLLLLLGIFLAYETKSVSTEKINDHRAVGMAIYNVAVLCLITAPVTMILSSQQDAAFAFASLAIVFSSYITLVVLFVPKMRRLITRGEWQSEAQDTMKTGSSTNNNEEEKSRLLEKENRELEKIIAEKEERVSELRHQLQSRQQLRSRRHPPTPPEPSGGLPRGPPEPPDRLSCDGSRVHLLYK
GABA-B receptor, sequence (O75899 whole entry): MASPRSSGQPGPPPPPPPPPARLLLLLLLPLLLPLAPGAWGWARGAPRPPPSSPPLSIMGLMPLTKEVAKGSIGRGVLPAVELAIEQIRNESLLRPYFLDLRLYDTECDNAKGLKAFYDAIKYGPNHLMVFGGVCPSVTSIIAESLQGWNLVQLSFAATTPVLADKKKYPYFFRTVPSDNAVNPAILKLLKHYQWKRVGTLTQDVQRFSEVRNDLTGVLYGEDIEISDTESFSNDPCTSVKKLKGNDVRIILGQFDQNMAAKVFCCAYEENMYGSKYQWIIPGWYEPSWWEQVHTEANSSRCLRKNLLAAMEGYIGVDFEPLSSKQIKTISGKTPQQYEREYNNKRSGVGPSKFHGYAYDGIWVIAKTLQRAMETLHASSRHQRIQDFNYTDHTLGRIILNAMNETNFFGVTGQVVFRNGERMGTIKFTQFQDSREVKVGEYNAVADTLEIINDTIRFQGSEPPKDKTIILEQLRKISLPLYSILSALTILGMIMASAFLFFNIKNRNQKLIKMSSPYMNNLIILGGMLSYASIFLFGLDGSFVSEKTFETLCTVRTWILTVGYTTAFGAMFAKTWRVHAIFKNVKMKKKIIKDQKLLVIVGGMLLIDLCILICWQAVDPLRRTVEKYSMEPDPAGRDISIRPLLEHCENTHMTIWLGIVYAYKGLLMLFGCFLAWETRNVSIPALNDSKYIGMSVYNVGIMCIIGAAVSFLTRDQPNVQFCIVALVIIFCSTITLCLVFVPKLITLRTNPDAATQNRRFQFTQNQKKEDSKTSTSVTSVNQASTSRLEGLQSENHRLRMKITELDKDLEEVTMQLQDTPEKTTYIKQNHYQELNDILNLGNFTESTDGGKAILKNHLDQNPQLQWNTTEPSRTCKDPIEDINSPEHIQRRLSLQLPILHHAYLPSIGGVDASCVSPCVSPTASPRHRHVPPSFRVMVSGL
Nicotinic acetylcholine receptor alpha9/alpha10, sequence (P43144 whole entry): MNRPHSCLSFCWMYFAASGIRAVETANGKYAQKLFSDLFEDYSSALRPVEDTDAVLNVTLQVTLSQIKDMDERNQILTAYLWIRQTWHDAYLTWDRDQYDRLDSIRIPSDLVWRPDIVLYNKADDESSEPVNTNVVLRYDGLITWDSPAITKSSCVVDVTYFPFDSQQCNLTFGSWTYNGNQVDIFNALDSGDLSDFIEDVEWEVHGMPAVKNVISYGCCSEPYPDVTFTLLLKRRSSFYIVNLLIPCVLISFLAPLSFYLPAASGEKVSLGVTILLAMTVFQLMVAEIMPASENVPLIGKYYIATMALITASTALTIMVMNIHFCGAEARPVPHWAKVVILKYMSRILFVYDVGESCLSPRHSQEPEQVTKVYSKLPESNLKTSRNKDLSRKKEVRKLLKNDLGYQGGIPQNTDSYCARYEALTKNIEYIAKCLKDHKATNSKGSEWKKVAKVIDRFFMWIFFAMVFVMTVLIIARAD
Nicotinic acetylcholine receptor alpha9/alpha10, sequence (Q9JLB5 whole entry): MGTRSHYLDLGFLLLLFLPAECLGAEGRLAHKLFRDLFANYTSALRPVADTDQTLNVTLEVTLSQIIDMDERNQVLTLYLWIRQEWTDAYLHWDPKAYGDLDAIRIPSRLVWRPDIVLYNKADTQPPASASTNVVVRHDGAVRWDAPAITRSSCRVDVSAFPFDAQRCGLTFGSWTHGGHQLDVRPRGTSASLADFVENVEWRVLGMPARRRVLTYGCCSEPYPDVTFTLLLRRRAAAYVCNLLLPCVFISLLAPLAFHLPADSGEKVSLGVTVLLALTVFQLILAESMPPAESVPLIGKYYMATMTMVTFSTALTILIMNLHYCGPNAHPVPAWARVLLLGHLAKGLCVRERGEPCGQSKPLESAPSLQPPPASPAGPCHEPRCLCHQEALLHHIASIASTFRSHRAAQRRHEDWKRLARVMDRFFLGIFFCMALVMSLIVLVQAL
Neuronal acetylcholine receptor; alpha9/alpha10, sequence (Q9UGM1 whole entry): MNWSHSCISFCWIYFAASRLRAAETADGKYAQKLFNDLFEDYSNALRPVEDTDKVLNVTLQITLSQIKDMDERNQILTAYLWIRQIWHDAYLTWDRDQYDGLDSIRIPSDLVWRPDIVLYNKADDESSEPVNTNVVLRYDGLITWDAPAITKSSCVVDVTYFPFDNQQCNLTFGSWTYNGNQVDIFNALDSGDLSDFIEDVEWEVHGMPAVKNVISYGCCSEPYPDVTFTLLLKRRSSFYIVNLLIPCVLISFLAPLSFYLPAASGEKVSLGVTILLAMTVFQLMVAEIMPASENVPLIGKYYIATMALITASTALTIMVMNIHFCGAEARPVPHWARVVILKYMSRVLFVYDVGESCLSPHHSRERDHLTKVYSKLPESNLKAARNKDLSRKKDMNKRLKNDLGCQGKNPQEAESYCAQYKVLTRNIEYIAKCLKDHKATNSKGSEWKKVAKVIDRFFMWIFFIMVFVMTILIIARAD
Neuronal acetylcholine receptor; alpha9/alpha10, sequence (Q9GZZ6 whole entry): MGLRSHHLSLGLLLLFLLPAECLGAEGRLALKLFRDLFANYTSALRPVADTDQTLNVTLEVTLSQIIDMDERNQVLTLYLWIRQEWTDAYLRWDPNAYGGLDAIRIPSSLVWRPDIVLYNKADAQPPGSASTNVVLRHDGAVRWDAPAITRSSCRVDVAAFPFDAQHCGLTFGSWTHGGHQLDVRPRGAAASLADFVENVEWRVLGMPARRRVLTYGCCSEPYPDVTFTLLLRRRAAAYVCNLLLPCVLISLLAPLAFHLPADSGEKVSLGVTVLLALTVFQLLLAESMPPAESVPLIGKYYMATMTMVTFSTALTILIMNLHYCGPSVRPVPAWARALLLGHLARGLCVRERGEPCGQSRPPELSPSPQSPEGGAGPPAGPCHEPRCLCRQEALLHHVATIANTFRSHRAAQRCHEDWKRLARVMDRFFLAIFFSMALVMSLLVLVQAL
Neuronal acetylcholine receptor subunit alpha-7 (Rattus norvegicus), sequence (Q05941 whole entry): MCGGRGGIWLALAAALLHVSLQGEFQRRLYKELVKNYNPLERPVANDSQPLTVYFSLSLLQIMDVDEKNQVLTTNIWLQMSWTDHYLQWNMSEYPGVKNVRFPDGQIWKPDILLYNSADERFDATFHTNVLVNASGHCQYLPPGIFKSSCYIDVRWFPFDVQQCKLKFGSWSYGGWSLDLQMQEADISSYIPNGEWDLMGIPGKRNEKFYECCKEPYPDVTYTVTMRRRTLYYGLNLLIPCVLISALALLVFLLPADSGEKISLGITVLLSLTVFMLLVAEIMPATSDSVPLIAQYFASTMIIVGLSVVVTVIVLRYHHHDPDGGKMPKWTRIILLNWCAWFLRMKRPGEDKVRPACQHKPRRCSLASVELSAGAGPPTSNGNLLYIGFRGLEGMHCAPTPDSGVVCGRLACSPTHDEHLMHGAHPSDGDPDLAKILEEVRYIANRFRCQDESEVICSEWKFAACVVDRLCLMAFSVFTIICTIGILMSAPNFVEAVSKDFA

SMILES: CC[C@H](C)[C@H](NC(=O)[C@H](CCC(=O)O)NC(=O)[C@@H]1CCCN1C(=O)[C@H](Cc1cnc[nH]1)NC(=O)[C@H](CC(=O)O)NC(=O)[C@H](Cc1ccc(O)cc1)NC(=O)[C@H](CCCNC(=N)N)NC(=O)[C@H](CS)NC(=O)[C@H](CCCNC(=N)N)NC(=O)[C@@H]1CCCN1C(=O)[C@H](CC(=O)O)NC(=O)[C@H](CO)NC(=O)[C@H](CS)NC(=O)[C@@H](N)CS)C(=O)N[C@@H](CS)C(N)=O (H-CCSDPRCRYDHPEIC-NH2)
- IC50 [1]: 23.2 nM
- Activity [2]: 32.5%

SMILES: CC[C@H](C)[C@H](NC(=O)[C@H](CCC(=O)O)NC(=O)[C@@H]1CCCN1C(=O)[C@H](Cc1cnc[nH]1)NC(=O)[C@H](CC(=O)O)NC(=O)[C@H](Cc1ccc(O)cc1)NC(=O)[C@H](CCCNC(=N)N)NC(=O)[C@H](CS)NC(=O)[C@H](CCCNC(=N)N)NC(=O)[C@@H]1CCCN1C(=O)[C@H](CC(=O)O)NC(=O)[C@H](CO)NC(=O)[C@H](CS)NC(=O)[C@H](CS)NC(=O)CN)C(=O)N[C@@H](CS)C(N)=O (H-GCCSDPRCRYDHPEIC-NH2)
- inhibition [3]: > 50%
- IC50 [4]: 4900 nM
- inhibition [5]: > 50%
- inhibition [6]: 19.6%
- Ratio IC50 [7]: 1000
- Activity [8]: 16.7%
- inhibition [9]: > 50%
- Activity [10]: Active
- inhibition [11]: inactive
- Activity [12]: inactive
- Ratio IC50 [13]: 74.1
- Activity [14]: 47.2%
- inhibition [15]: inactive
- inhibition [16]: > 50%
- inhibition [17]: > 50%
- inhibition [18]: > 50%
- IC50 [19]: 363 nM
- IC50 [1]: 4.9 nM
- Activity [2]: 85%
- Activity [20]: Dose-dependent effect

SMILES: CC[C@H](C)[C@H](NC(=O)[C@H](CCC(=O)O)NC(=O)[C@@H]1CCCN1C(=O)[C@H](Cc1cnc[nH]1)NC(=O)[C@H](CC(N)=O)NC(=O)[C@H](Cc1ccc(O)cc1)NC(=O)[C@H](CCCNC(=N)N)NC(=O)[C@H](CS)NC(=O)[C@H](CCCNC(=N)N)NC(=O)[C@@H]1CCCN1C(=O)[C@H](CC(=O)O)NC(=O)[C@H](CO)NC(=O)[C@H](CS)NC(=O)[C@H](CS)NC(=O)CN)C(=O)N[C@@H](CS)C(N)=O (H-GCCSDPRCRYNHPEIC-NH2)
- IC50 [4]: 13900 nM
- Ratio IC50 [7]: < 13.9
- IC50 [1]: > 1000 nM
- Activity [2]: 40.8%

SMILES: CC[C@H](C)[C@H](NC(=O)[C@H](CCC(=O)O)NC(=O)[C@@H]1CCCN1C(=O)[C@H](Cc1cnc[nH]1)NC(=O)[C@H](CCCNC(=N)N)NC(=O)[C@H](Cc1ccc(O)cc1)NC(=O)[C@H](CCCNC(=N)N)NC(=O)[C@H](CS)NC(=O)[C@H](CCCNC(=N)N)NC(=O)[C@@H]1CCCN1C(=O)[C@H](CC(=O)O)NC(=O)[C@H](CO)NC(=O)[C@H](CS)NC(=O)[C@H](CS)NC(=O)CN)C(=O)N[C@@H](CS)C(N)=O (H-GCCSDPRCRYRHPEIC-NH2)
- IC50 [1]: > 1000 nM
- Activity [2]: 35.3%

SMILES: CC[C@H](C)[C@H](NC(=O)[C@H](CCC(=O)O)NC(=O)[C@@H]1CCCN1C(=O)[C@H](Cc1cnc[nH]1)NC(=O)[C@H](CO)NC(=O)[C@H](Cc1ccc(O)cc1)NC(=O)[C@H](CCCNC(=N)N)NC(=O)[C@H](CS)NC(=O)[C@H](CCCNC(=N)N)NC(=O)[C@@H]1CCCN1C(=O)[C@H](CC(=O)O)NC(=O)[C@H](CO)NC(=O)[C@H](CS)NC(=O)[C@H](CS)NC(=O)CN)C(=O)N[C@@H](CS)C(N)=O (H-GCCSDPRCRYSHPEIC-NH2)
- IC50 [1]: 18.6 nM
- Activity [2]: 9%

From ChEMBL document CHEMBL4680110 (2018)
